Results taken from patent publication US11572371B2, “BRD4 inhibitor” (HINOVA PHARMACEUTICALS INC., priority 2017, dated 2023).
Read-outs that look alike come from different tables or passages of the source.

System: CWR22RV1 cells
Experiment: Inhibition of CWR22RV1 cell proliferation (CCK-8)
Type: cell-based
Conditions: Homo sapiens, CWR22Rv1, 144 h, read-out: IC50 on CWR22RV1
Method: Test Example 2 Biological Determination of the Inhibitory Effect of the Compound on CWR22RV1 Cell Proliferation
Experimental Materials: • CWR22RV1 cell line (Cell bank of Chinese Academy of Sciences, TCHu100) • FBS (Gibco, Cat. No. 10099-141) • 0.01M PBS (Biosharp, Cat. No. 162262) • RIPM1640 (Hyclone, Cat. No. 308090.01) • Penicillin-Streptomycin (Hyclone, Cat. No. SV30010) • Cell counting kit-8(Signalway Antibody, Cat. No. CP002) • DMSO (Sigma, Cat. No. D5879) • Centrifuge Tube, 15 ml (Excell Bio, Cat. No. CS015-0001) • Cell Culture Dish, (Excell Bio, Cat. No. CS016-0128) • 96-well cell culture cluster (Corning, Cat. No. 3599)
(1) CWR22RV1 cells were subcultured with cell culture medium, and well-growth cells were inoculated in 96-well plates, with 80 μL per well. The number of cells in each well was 1500, and the plate was cultured overnight in a 37° C., 5% CO2 cell incubator.
(2) The drug was prepared as a 30 mM stock solution using dimethyl sulfoxide (DMSO). before use, the stock solution was diluted 3 times with DMSO, and then diluted by a 3 times gradient to obtain 9 concentration gradients. The compound at each concentration was further diluted 200 times with the culture solution (to ensure that the DMSO concentration in the culture system was 0.1%), and each concentration was repeated 2 wells. 20 μL of the diluted compound was added to the cell culture wells (with final concentrations of 10 μM, 3.3 μM, 1.1 μM . . . ), and gently shaked to mix. In addition, three negative control wells containing only cells and three blank control wells containing only culture medium (6 wells each containing 20 μL DMSO 200-fold diluted with culture medium) were set.
(1) After being cultured for 6 days, 10 μL CCK-8 was added to each well, and the cells were further cultured in a 5% CO2 cell incubator at 37° C. for 2.5 hours.
(2) The absorbance (OD value) was measured at 450 nm with a multifunctional microplate reader.
(3) The data were analyzed with the Dose-response-inhibition equation in the software GraphPad Prism6, and IC50 values were obtained.

| Structure (SMILES) | IC50 (cultured for 6 days, CCK-8) [nM] | IC50 [nM] |
| --- | --- | --- |
| Cc1sc2c(c1C)C(c1ccc(Cl)cc1)=N[C@@H](Cc1nnc(CNS(C)(=O)=O)o1)c1nnc(C)n1-2 [Compound 10, (S)-N-((5-((4-(4-chlorophenyl)-2,3,9-trimethyl-6H-thieno[3,2-f][1,2,4]triazolo[4,3-a][1,4]diaza-6-yl)methyl) -1,3,4-oxodiazole-2-yl)methyl) methanesulfonamide] | 63 | – |
| Cc1sc2c(c1C)C(c1ccc(Cl)cc1)=N[C@@H](Cc1nnc(CN3CCS(=O)(=O)CC3)o1)c1nnc(C)n1-2 [Compound 12, (S)-4-((5-((4-(4-chlorophenyl)-2,3,9-trimethyl-6H-thieno[3,2-f] [1,2,4]triazolo[4,3-a][1,4]diaza-6-yl)methyl)-1,3,4-oxodiazole-2-yl)methyl)thiomorpholine 1,1-dioxide] | 110 | – |
| CC(=O)NCc1nnc(C[C@@H]2N=C(c3ccc(Cl)cc3)c3c(sc(C)c3C)-n3c(C)nnc32)o1 [Compound 9, (S)-N-((5-((4-(4-chlorophenyl)-2,3,9-trimethyl-6H-thieno[3,2-f][1,2,4]triazolo[4,3-a][1,4]diaza-6-yl)methyl)-1,3,4-oxodiazole-2-yl)methyl)acetylamine] | 110 | – |
| Cc1sc2c(c1C)C(c1ccc(Cl)cc1)=N[C@@H](Cc1nncn1C(C)C)c1nnc(C)n1-2 [Compound 25, (S)-4-(4-chlorophenyl)-6-((4-isopropyl-4H-1,2,4--3-yl)methyl)-2,3,9-trimethyl-6H-thieno[3,2-f][1,2,4]triazolo[4,3-a][1,4]diazepine] | – | 1310 |
| C=CC(=O)NCc1nnc(C[C@@H]2N=C(c3ccc(Cl)cc3)c3c(sc(C)c3C)-n3c(C)nnc32)o1 [Compound 11, (S)-N-((5-((4-(4-chlorophenyl)-2,3,9-trimethyl-6H-thieno[3,2-f][1,2,4]triazolo[4,3-a][1,4]diaza-6-yl)methyl)-1,3,4-oxodiazole-2-yl)methyl)acrylamide] | 54 | – |
| Cc1sc2c(c1C)C(c1ccc(Cl)cc1)=N[C@@H](Cc1nnc(CN3CCC(C(=O)O)CC3)o1)c1nnc(C)n1-2 [Compound 16, (5)-1-((5-((4-(4-chlorophenyl)-2,3,9-trimethyl-6H-thieno[3,2-f][1,2,4]triazolo[4,3-a][1,4]diaza-6-yl)methyl)-1,3,4-oxodiazole-2-yl)methyl)piperidin-4-carboxylic acid] | 2650 | – |
| Cc1sc2c(c1C)C(c1ccc(Cl)cc1)=N[C@@H](Cc1nnc(CNCCO)o1)c1nnc(C)n1-2 [Compound 14, (S)-2-(((5-((4-(4-chlorophenyl)-2,3,9-trimethyl-6H-thieno[3,2-f][1,2,4]triazolo[4,3-a][1,4]diaza-6-yl)methyl)-1,3,4-oxodiazole-2-yl)methyl)amino)ethanol] | 163 | – |
| Cc1sc2c(c1C)C(c1ccc(Cl)cc1)=N[C@@H](Cc1nnc(CN3CC(C(=O)O)C3)o1)c1nnc(C)n1-2 [Compound 17, (5)-1-((5-((4-(4-chlorophenyl)-2,3,9-trimethyl-6H-thieno[3,2-f][1,2,4]triazolo[4,3-a][1,4]diaza-6-yl)methyl)-1,3,4-oxodiazole-2-yl)methyl)azacyclobutane-3-carboxylic acid] | 2380 | – |
| Cc1sc2c(c1C)C(c1ccc(Cl)cc1)=N[C@@H](Cc1nnc(CO)o1)c1nnc(C)n1-2 [Compound 7, (S)-(5-((4-(4-chlorophenyl)-2,3,9-trimethyl-6H-thieno[3,2-f][1,2,4]triazolo[4,3-a][1,4]diaza-6-yl)methyl)-1,3,4-oxodiazole-2-yl)methanol] | – | 89 |
| Cc1nnc(C[C@@H]2N=C(c3ccc(Cl)cc3)c3c(sc(C)c3C)-n3c(C)nnc32)o1 [Compound 21, (S)-2-((4-(4-chlorophenyl)-2,3 ,9-trimethyl-6H-thieno[3,2-f][1,2,4]triazolo[4,3-a][1,4]diaza-6-yl)methyl)-5-methyl-1,3,4-oxodiazole] | – | 33 |
| Cc1sc2c(c1C)C(c1ccc(Cl)cc1)=N[C@@H](Cc1nnc(CN3CC(O)C3)o1)c1nnc(C)n1-2 [Compound 18, (5)-1-((5-((4-(4-chlorophenyl)-2,3,9-trimethyl-6H-thieno[3,2-f][1,2,4]triazolo[4,3-a][1,4]diaza-6-yl)methyl)-1,3,4-oxodiazole-2-yl)methyl)azacyclobutane-3-ol] | 89 | – |
| COC(=O)C1CCN(Cc2nnc(C[C@@H]3N=C(c4ccc(Cl)cc4)c4c(sc(C)c4C)-n4c(C)nnc43)o2)CC1 [Compound 15, (S)-methyl-1-((5-((4-(4-chlorophenyl)-2,3,9-trimethyl-6H-thieno[3,2-f][1,2,4]triazolo[4,3-a][1,4]diaza-6-yl)methyl) -1,3,4-oxodiazole-2-yl)methyl)piperidin-4-carboxylic ester] | 59 | – |
| Cc1noc(C[C@@H]2N=C(c3ccc(Cl)cc3)c3c(sc(C)c3C)-n3c(C)nnc32)n1 [Compound 30, (S)-5-((4-(4-chlorophenyl)-2,3,9-trimethyl-6H-thieno[3,2-f][1,2,4]triazolo[4,3-a][1,4]diaza-6-yl)methyl)-3-methyl-1,2,4-oxodiazole] | 47 | – |
| Cc1sc2c(c1C)C(c1ccc(Cl)cc1)=N[C@@H](Cc1nnc(C(C)(C)C)o1)c1nnc(C)n1-2 [Compound 23, (S)-2-(t-butyl)-5-((4-(4-chlorophenyl)-2,3,9-trimethyl-6H-thieno[3,2-f][1,2,4]triazolo[4,3-a][1,4]diaza-6-yl)methyl) -1,3,4-oxodiazole] | – | 179 |
| Cc1sc2c(c1C)C(c1ccc(Cl)cc1)=N[C@@H](Cc1nnc(CCl)o1)c1nnc(C)n1-2 [Compound 4, (S)-2-chloromethyl-5-((4-(4-chlorophenyl)-2,3,9-trimethyl-6H-thieno[3,2-f][1,2,4]triazolo[4,3-a][1,4]diaza-6-yl)methyl)-1,3,4-oxodiazole] | 28 | – |
| Cc1sc2c(c1C)C(c1ccc(Cl)cc1)=N[C@@H](Cc1nc(CCl)co1)c1nnc(C)n1-2 [Compound 27, 2-(4-(4-chlorophenyl)-2,3,9-trimethyl-6H-thieno[3,2-f][1,2,4]triazolo[4,3-a][1,4]diaza-6-yl)-4-chloromethyloxazole] | – | 29 |
| COCc1nnc(C[C@@H]2N=C(c3ccc(Cl)cc3)c3c(sc(C)c3C)-n3c(C)nnc32)o1 [Compound 5, (S)-2-((4-(4-chlorophenyl)-2,3,9-trimethyl-6H-thieno[3,2-f][1,2,4]triazolo[4,3-a][1,4]diaza-6-yl)methyl)-5-(methoxylmethyl)-1,3,4-oxodiazole] | 45 | – |
